What all share (assay): cells
Parameters in all cases: species or system panel of 482 human cancer cell lines; ATPLite luminescence growth inhibition after treatment, nine-point dilution curve, 482 cancer cell lines, 384-well
Details in all cases: 72 h, recommended growth medium

The test system of one test is JHH6_LIVER. The method in brief: (§1)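 Growth inhibition was measured across a panel of 482 cancer cell lines. Cells were plated at 500 cells per well in recommended growth media in black, tissue culture treated 384-well plates, centrifuged to equilibrate, and incubated 24 h before dosing. Compounds were tested as nine-point dilution curves for 72 h, with viability read by ATPLite luminescence relative to DMSO-treated controls.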

A further test relates to NCIH1568_LUNG. The method in brief:
as §1

The next test has as its system NCIH2110_LUNG. The method in brief:
as §1

The subject of the next test is NCIH2170_LUNG. The method in brief: as §1
The test system of the next test is NCIH1155_LUNG. The method in brief: as §1
Another test relates to SNU601_STOMACH. The gist of the method:
as §1

Test [1] concerns U2932_HAEMATOPOIETIC_AND_LYMPHOID_TISSUE. The gist of the method:
as §1

Another test deals with BEN_LUNG. The method in brief: as §1
The next test relates to MORCPR_LUNG. The gist of the method:
as §1

The next test concerns HCC70_BREAST. The method in brief:
as §1

In the next test the test system is SKNDZ_AUTONOMIC_GANGLIA. The method in brief: as §1
The subject of the next test is NCIH1944_LUNG. The gist of the method:
as §1

Test [2] concerns TMD8_HAEMATOPOIETIC_AND_LYMPHOID_TISSUE. The gist of the method: as §1
A further test has as its system HCC1588_LUNG. The method in brief:
as §1

The next test concerns NCIH810_LUNG. The method in brief:
as §1

The subject of test [3] is SUDHL4_HAEMATOPOIETIC_AND_LYMPHOID_TISSUE. The gist of the method:
as §1

Test [4] concerns HTK_HAEMATOPOIETIC_AND_LYMPHOID_TISSUE. The method in brief: as §1

Structures are written as SMILES.

In the case of `CCN(C/C=C/C#CC(C)(C)C)Cc1cccc(OCc2cc(-c3ccsc3)cs2)c1` [NB-598], the 50% growth inhibitory concentration (GI50) in the test on JHH6_LIVER is 8.89 µM; in the test with NCIH1568_LUNG, 7.98 µM; in the test on NCIH2110_LUNG, 36.2 µM; in the test on NCIH2170_LUNG, 0.608 µM; in the test with NCIH1155_LUNG it was 0.00517 µM; with SNU601_STOMACH, 5.4 µM. The concentration for 50% growth inhibition (GI50) in [1] was 1.29 µM; in the test on BEN_LUNG, 21.4 µM; in the test with MORCPR_LUNG, 2.69 µM; with HCC70_BREAST it was 16.3 µM; with SKNDZ_AUTONOMIC_GANGLIA, 0.012 µM; with NCIH1944_LUNG it was 0.0271 µM. In addition, the concentration for 50% growth inhibition (GI50) in test [2] was determined as 0.131 µM; with HCC1588_LUNG, 5.16 µM; in the test on NCIH810_LUNG, 0.00733 µM; in [3], 10.6 µM; in [4], 4.77 µM.

The record behind these values is PMC6327044, “A chemical biology screen identifies a vulnerability of neuroendocrine cancer cells to SQLE inhibition” (Nature Communications, 2019).
